In patent US20230303540A1 (Merck Sharp & Dohme LLC, priority 2020, published 2023):

These compounds were tested against GST-tagged truncated human mutant G2019S LRRK2 (Homo sapiens, UniProt Q5S007, G2019S) (assay: LRRK2 G2019S Km ATP LanthaScreen assay). Conditions: 134 μM ATP (Km ATP), LRRKtide substrate, mean IC50 values; read-out: LRRK2 pIC50 (converted).
Assay type: biochemical
In short: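 LanthaScreen TR-FRET read with fluorescein-LRRKtide and 134 μM ATP (Km) in Tris pH 8.5/10 mM MgCl2 buffer. The enzyme was preincubated 15 min with compound at room temperature, and the reaction ran 90 min at ambient temperature. Stopped with EDTA plus Tb anti-phospho-LRRKtide antibody; the 520/495 nm ratio gave a 4-parameter logistic IC50, mean of several runs.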

In order of rising IC50:
1. CC(C)n1ncc(Nc2ncc3cc(Cl)c(N4CCN(C5(C)COCC5O)CC4)cc3n2)c1C(F)F (single isomer, unassigned) [Ex-6.50, (3S,4S) or (3R,4R) 4-(4-(6-chloro-2-((5-(difluoromethyl)-1-isopropyl-1H-pyrazol-4-yl)amino)quinazolin-7-yl)piperazin-1-yl)-4-methyltetrahydrofuran-3-ol]  0.08 nM
2. Cc1c(Nc2cc3cc(N4CCN(C5(C)COCC5O)CC4)c(Cl)cc3cn2)cnn1C1CC1(F)F (single isomer, unassigned) [Ex-6.53, (3S,4S) or (3R,4R) 4-(4-(7-chloro-3-((1-(2,2-difluorocyclopropyl)-5-methyl-1H-pyrazol-4-yl)amino)isoquinolin-6-yl)piperazin-1-yl)-4-methyltetrahydrofuran-3-ol]  0.522 nM
3. CCn1ncc(Nc2ncc3ccc(N4C(=O)OCC4C4CC4)cc3n2)c1C (single isomer, unassigned) [Ex-7.16, (R) or (S) 4-cyclopropyl-3-{2-[(1-ethyl-5-methyl-1H-pyrazol-4-yl)amino]quinazolin-7-yl}-1,3-oxazolidin-2-one]  0.625 nM
4. Cc1c(Nc2ncc3ccc(N4C(=O)OCC4C4CC4)cc3n2)cnn1C1CCOCC1 (single isomer, unassigned) [Ex-7.14, (R) or (S) 4-cyclopropyl-3-(2-{[5-methyl-1-(oxan-4-yl)-1H-pyrazol-4-yl]amino}quinazolin-7-yl)-1,3-oxazolidin-2-one]  0.749 nM
5. Cc1c(Nc2ncc3cc(Cl)c(N4CCN(C5COCC5O)CC4)cc3n2)cnn1C1CC1(F)F (single isomer, unassigned) [Ex-6.45, (3S,4S) or (3R,4R) 4-[4-(6-chloro-2-{[1-(2,2-(R) or (S)difluorocyclopropyl)-5-methyl-1H-pyrazol-4-yl]amino}quinazolin-7-yl)piperazin-1-yl]oxolan-3-ol]  0.843 nM
6. OC1COCC1N1CCN(c2cc3nc(Nc4cnn(C(F)F)c4)ncc3cc2Cl)CC1 (single isomer, unassigned) [Ex-6.47, (3S,4S) or (3R,4R) 4-(4-(6-chloro-2-((1-(difluoromethyl)-1H-pyrazol-4-yl)amino)quinazolin-7-yl)piperazin-1-yl)tetrahydrofuran-3-ol]  0.85 nM
7. CC1(N2CCN(c3cc4cc(Nc5cnn(C6CC6)c5Cl)ncc4cc3Cl)CC2)COCC1O (single isomer, unassigned) [Ex-6.54, (3S,4S) or (3R,4R) 4-(4-(7-chloro-3-((5-chloro-1-cyclopropyl-1H-pyrazol-4-yl)amino)isoquinolin-6-yl)piperazin-1-yl)-4-methyltetrahydrofuran-3-ol]  1.21 nM
8. Cc1c(Nc2cc3cc(N4CCN(C5(C)COCC5O)CC4)c(Cl)cc3cn2)cnn1C1CC1 (single isomer, unassigned) [Ex-6.51, (3S,4S) or (3R,4R) 4-(4-(7-chloro-3-((1-cyclopropyl-5-methyl-1H-pyrazol-4-yl)amino)isoquinolin-6-yl)piperazin-1-yl)-4-methyltetrahydrofuran-3-ol]  1.35 nM
9. Cc1c(Nc2ncc3ccc(N4C(=O)OC[C@@H]4C)cc3n2)cnn1C1C[C@@H](C)O[C@@H](C)C1 (single isomer, unassigned) [Ex-7.6]  1.57 nM
10. Cn1ncc(Nc2ncc3cc(Cl)c(N4CCN(C5(C)COCC5O)CC4)cc3n2)c1C(F)F (single isomer, unassigned) [Ex-6.49, (3S,4S) or (3R,4R) 4-(4-(6-chloro-2-((5-(difluoromethyl)-1-methyl-1H-pyrazol-4-yl)amino)quinazolin-7-yl)piperazin-1-yl)-4-methyltetrahydrofuran-3-ol]  2.07 nM
11. CC1(N2CCN(c3cc4cc(Nc5cnn(C6CC6(F)F)c5Cl)ncc4cc3Cl)CC2)COCC1O (single isomer, unassigned) [Ex-6.52, (3S,4S) or (3R,4R) 4-(4-(7-chloro-3-((5-chloro-1-(2,2-difluorocyclopropyl)-1H-pyrazol-4-yl)amino)isoquinolin-6-yl)piperazin-1-yl)-4-methyltetrahydrofuran-3-ol]  3.12 nM
12. Cc1c(Nc2ncc3ccc(N4C(=O)OC[C@@H]4C)cc3n2)cnn1C1C[C@@H](C)O[C@@H](C)C1 (single isomer, unassigned) [Ex-7.4]  6.75 nM
13. Cc1c(Nc2ncc3cc(Cl)c(N4CCN(C5COCC5O)CC4)cc3n2)cnn1C1CC1(F)F (single isomer, unassigned) [Ex-6.44, (3S,4S) or (3R,4R) 4-[4-(6-chloro-2-{[1-(2,2-(R) or (S)difluorocyclopropyl)-5-methyl-1H-pyrazol-4-yl]amino}quinazolin-7-yl)piperazin-1-yl]oxolan-3-ol]  6.89 nM
14. Cc1c(Nc2ncc3cc(Cl)c(N4CCN(C5COCC5O)CC4)cc3n2)cnn1C1CC1(F)F (single isomer, unassigned) [Ex-6.43, (3S,4S) or (3R,4R) 4-[4-(6-chloro-2-{[1-(2,2-(R) or (S)difluorocyclopropyl)-5-methyl-1H-pyrazol-4-yl]amino}quinazolin-7-yl)piperazin-1-yl]oxolan-3-ol]  7.92 nM
15. CCn1ncc(Nc2ncc3ccc(N4C(=O)OCC4C4CC4)cc3n2)c1C (single isomer, unassigned) [Ex-7.15, (R) or (S) 4-cyclopropyl-3-{2-[(1-ethyl-5-methyl-1H-pyrazol-4-yl)amino]quinazolin-7-yl}-1,3-oxazolidin-2-one]  9.26 nM
16. CC1(N2CCN(c3cc4nc(Nc5ccnn5C(C)(C)C)ncc4cc3Cl)CC2)COCC1O (single isomer, unassigned) [Ex-6.48, (3S,4S) or (3R,4R) 4-(4-(2-((1-(tert-butyl)-1H-pyrazol-5-yl)amino)-6-chloroquinazolin-7-yl)piperazin-1-yl)-4-methyltetrahydrofuran-3-ol]  11.4 nM
17. Cc1c(Nc2ncc3ccc(N4C(=O)OCC4C4CC4)cc3n2)cnn1C1CCOCC1 (single isomer, unassigned) [Ex-7.13, (R) or (S) 4-cyclopropyl-3-(2-{[5-methyl-1-(oxan-4-yl)-1H-pyrazol-4-yl]amino}quinazolin-7-yl)-1,3-oxazolidin-2-one]  11.4 nM
18. OC1COCC1N1CCN(c2cc3nc(Nc4cnn(C(F)F)c4)ncc3cc2Cl)CC1 (single isomer, unassigned) [Ex-6.46, (3S,4S) or (3R,4R) 4-(4-(6-chloro-2-((1-(difluoromethyl)-1H-pyrazol-4-yl)amino)quinazolin-7-yl)piperazin-1-yl)tetrahydrofuran-3-ol]  18.4 nM
19. Cc1c(Nc2ncc3cc(Cl)c(N4CCN(C5(C)COCC5O)CC4)cc3n2)cnn1C1CC1(F)F (single isomer, unassigned) [Ex-6.42, (3S,4S) or (3R,4R) 4-[4-(6-chloro-2-{[1-(2,2-(R) or (S)difluorocyclopropyl)-5-methyl-1H-pyrazol-4-yl]amino}quinazolin-7-yl)piperazin-1-yl]-4-methyloxolan-3-ol]  21.4 nM
20. Cc1c(Nc2ncc3cc(Cl)c(N4CCN(C5(C)COCC5O)CC4)cc3n2)cnn1C1CC1(F)F (single isomer, unassigned) [Ex-6.41, (3S,4S) or (3R,4R) 4-[4-(6-chloro-2-{[1-(2,2-(R) or (S)difluorocyclopropyl)-5-methyl-1H-pyrazol-4-yl]amino}quinazolin-7-yl)piperazin-1-yl]-4-methyloxolan-3-ol]  32.9 nM
